From the supplement of paper PMC10307832

Experiments:
Assay in all cases: relative viability (nuclei count vs DMSO), 5 days (fraction); higher = more cells survive
[1] = compound: C1CC1C(=O)NC2=NNC3=C2C=CC(=C3)C4=CC(=CC=C4)C(=O)NC5CC5 [XMD13-2] + NC(=O)Nc1cc(-c2cccc(F)c2)sc1C(=O)N[C@H]1CCCNC1 [AZD7762] (partner 0.2 µM)
Outline: (§1)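 Relative viability was taken as the ratio of nuclei in treated wells to nuclei in vehicle wells. Lung cancer cell lines in 1536-well plates received compounds by pin tool one day after seeding, either one drug alone or a fixed anchor-drug dose plus five library-drug doses (not always all listed) in √10 steps. Nuclei were counted on 4× images after 5 days of treatment, and values are medians of duplicate plates.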

[2] = compound: Cc1ccc(C(=O)Nc2cccc(C(F)(F)F)c2)cc1Nc1cncc(C(N)=O)c1 [ALW-II-49-7] + COc1cc2c(Oc3ccc(NC(=O)C4(C(=O)Nc5ccc(F)cc5)CC4)cc3F)ccnc2cc1OCCCN1CCOCC1 [Foretinib] (partner 0.25 µM)
Outline: as §1

[3] = compound: Cc1ccc(C(=O)Nc2cccc(C(F)(F)F)c2)cc1Nc1cncc(C(N)=O)c1 [ALW-II-49-7] + C[C@]1(O)C[C@@H](c2nc(-c3ccc4ccc(-c5ccccc5)nc4c3)c3c(N)nccn32)C1 [Linsitinib] (partner 1 µM)
Outline: as §1

[4] = compound: Cc1nc(Nc2ncc(C(=O)Nc3c(C)cccc3Cl)s2)cc(N2CCN(CCO)CC2)n1 [Dasatinib] + CS(=O)(=O)N1CCN(Cc2cc3nc(-c4cccc5[nH]ncc45)nc(N4CCOCC4)c3s2)CC1 [Pictilisib] (partner 1 µM)
Outline: as §1

NCI-H1755
relative viability ([1]; first compound 0.05 µM): 0.419
relative viability ([1]; first compound 0.1581 µM): 0.431
relative viability ([1]; first compound 0.5 µM): 0.46
relative viability ([1]; first compound 1.581 µM): 0.449
relative viability ([1]; first compound 5 µM): 0.413
relative viability ([2]; first compound 0.08 µM): 0.875
relative viability ([2]; first compound 0.253 µM): 1.06
relative viability ([2]; first compound 0.8 µM): 0.807
relative viability ([2]; first compound 2.53 µM): 0.931
relative viability ([2]; first compound 8 µM): 0.825
relative viability ([3]; first compound 0.08 µM): 1.05
relative viability ([3]; first compound 0.253 µM): 1.14
relative viability ([3]; first compound 0.8 µM): 1.01
relative viability ([3]; first compound 2.53 µM): 0.978
relative viability ([3]; first compound 8 µM): 0.855
relative viability ([4]; first compound 0.005 µM): 0.317
relative viability ([4]; first compound 0.01581 µM): 0.21
relative viability ([4]; first compound 0.05 µM): 0.191
relative viability ([4]; first compound 0.1581 µM): 0.182
relative viability ([4]; first compound 0.5 µM): 0.139

NCI-H1793
relative viability ([1]; first compound 0.05 µM): 0.707
relative viability ([1]; first compound 0.1581 µM): 0.662
relative viability ([1]; first compound 0.5 µM): 0.468
relative viability ([1]; first compound 1.581 µM): 0.524
relative viability ([1]; first compound 5 µM): 0.72
relative viability ([2]; first compound 0.08 µM): 0.667
relative viability ([2]; first compound 0.253 µM): 0.642
relative viability ([2]; first compound 0.8 µM): 0.728
relative viability ([2]; first compound 2.53 µM): 0.701
relative viability ([2]; first compound 8 µM): 0.855
relative viability ([3]; first compound 0.08 µM): 0.864
relative viability ([3]; first compound 0.253 µM): 0.723
relative viability ([3]; first compound 0.8 µM): 0.84
relative viability ([3]; first compound 2.53 µM): 0.868
relative viability ([3]; first compound 8 µM): 0.863
relative viability ([4]; first compound 0.005 µM): 0.316
relative viability ([4]; first compound 0.01581 µM): 0.395
relative viability ([4]; first compound 0.05 µM): 0.29
relative viability ([4]; first compound 0.1581 µM): 0.311
relative viability ([4]; first compound 0.5 µM): 0.31

NCI-H1915
relative viability ([1]; first compound 0.05 µM): 0.675
relative viability ([1]; first compound 0.1581 µM): 0.774
relative viability ([1]; first compound 0.5 µM): 0.708
relative viability ([1]; first compound 1.581 µM): 0.696
relative viability ([1]; first compound 5 µM): 0.646
relative viability ([2]; first compound 0.08 µM): 1.17
relative viability ([2]; first compound 0.253 µM): 1.07
relative viability ([2]; first compound 0.8 µM): 1.06
relative viability ([2]; first compound 2.53 µM): 0.864
relative viability ([2]; first compound 8 µM): 0.816
relative viability ([3]; first compound 0.08 µM): 1.13
relative viability ([3]; first compound 0.253 µM): 1.13
relative viability ([3]; first compound 0.8 µM): 1.09
relative viability ([3]; first compound 2.53 µM): 1
relative viability ([3]; first compound 8 µM): 0.825
relative viability ([4]; first compound 0.005 µM): 0.936
relative viability ([4]; first compound 0.01581 µM): 0.84
relative viability ([4]; first compound 0.05 µM): 0.763
relative viability ([4]; first compound 0.1581 µM): 0.463
relative viability ([4]; first compound 0.5 µM): 0.231

NCI-H1944
relative viability ([1]; first compound 0.05 µM): 0.555
relative viability ([1]; first compound 0.1581 µM): 0.473
relative viability ([1]; first compound 0.5 µM): 0.488
relative viability ([1]; first compound 1.581 µM): 0.75
relative viability ([1]; first compound 5 µM): 0.551
relative viability ([2]; first compound 0.08 µM): 0.997
relative viability ([2]; first compound 0.253 µM): 0.801
relative viability ([2]; first compound 0.8 µM): 0.964
relative viability ([2]; first compound 2.53 µM): 0.846
relative viability ([2]; first compound 8 µM): 0.954
relative viability ([3]; first compound 0.08 µM): 1.18
relative viability ([3]; first compound 0.253 µM): 1.26
relative viability ([3]; first compound 0.8 µM): 1.3
relative viability ([3]; first compound 2.53 µM): 1.29
relative viability ([3]; first compound 8 µM): 1.2
relative viability ([4]; first compound 0.005 µM): 0.308
relative viability ([4]; first compound 0.01581 µM): 0.274
relative viability ([4]; first compound 0.05 µM): 0.274
relative viability ([4]; first compound 0.1581 µM): 0.258
relative viability ([4]; first compound 0.5 µM): 0.268

NCI-H1975
relative viability ([1]; first compound 0.05 µM): 0.857
relative viability ([1]; first compound 0.1581 µM): 0.869
relative viability ([1]; first compound 0.5 µM): 0.735
relative viability ([1]; first compound 1.581 µM): 0.664
relative viability ([1]; first compound 5 µM): 0.799
relative viability ([2]; first compound 0.08 µM): 0.918
relative viability ([2]; first compound 0.253 µM): 1.05
relative viability ([2]; first compound 0.8 µM): 1
relative viability ([2]; first compound 2.53 µM): 0.909
relative viability ([2]; first compound 8 µM): 0.891
relative viability ([3]; first compound 0.08 µM): 1.01
relative viability ([3]; first compound 0.253 µM): 1
relative viability ([3]; first compound 0.8 µM): 0.892
relative viability ([3]; first compound 2.53 µM): 0.863
relative viability ([3]; first compound 8 µM): 0.956
relative viability ([4]; first compound 0.005 µM): 0.315
relative viability ([4]; first compound 0.01581 µM): 0.225
relative viability ([4]; first compound 0.05 µM): 0.207
relative viability ([4]; first compound 0.1581 µM): 0.0981
relative viability ([4]; first compound 0.5 µM): 0.201

NCI-H1993
relative viability ([1]; first compound 0.05 µM): 0.926
relative viability ([1]; first compound 0.1581 µM): 0.595
relative viability ([1]; first compound 0.5 µM): 0.387
relative viability ([1]; first compound 1.581 µM): 0.63
relative viability ([1]; first compound 5 µM): 0.791
relative viability ([2]; first compound 0.08 µM): 0.7
relative viability ([2]; first compound 0.253 µM): 0.852
relative viability ([2]; first compound 0.8 µM): 0.797
relative viability ([2]; first compound 2.53 µM): 0.756
relative viability ([2]; first compound 8 µM): 0.892
relative viability ([3]; first compound 0.08 µM): 0.753
relative viability ([3]; first compound 0.253 µM): 0.691
relative viability ([3]; first compound 0.8 µM): 0.737
relative viability ([3]; first compound 2.53 µM): 0.792
relative viability ([3]; first compound 8 µM): 0.878
relative viability ([4]; first compound 0.005 µM): 0.923
relative viability ([4]; first compound 0.01581 µM): 0.682
relative viability ([4]; first compound 0.05 µM): 0.723
relative viability ([4]; first compound 0.1581 µM): 0.776
relative viability ([4]; first compound 0.5 µM): 0.866

NCI-H2085
relative viability ([1]; first compound 0.05 µM): 0.993
relative viability ([1]; first compound 0.1581 µM): 0.995
relative viability ([1]; first compound 0.5 µM): 1.04
relative viability ([1]; first compound 1.581 µM): 0.848
relative viability ([1]; first compound 5 µM): 1.09
relative viability ([2]; first compound 0.08 µM): 1.08
relative viability ([2]; first compound 0.253 µM): 0.876
relative viability ([2]; first compound 0.8 µM): 0.989
relative viability ([2]; first compound 2.53 µM): 1.06
relative viability ([2]; first compound 8 µM): 1.02
relative viability ([3]; first compound 0.08 µM): 0.669
relative viability ([3]; first compound 0.253 µM): 0.866
relative viability ([3]; first compound 0.8 µM): 0.843
relative viability ([3]; first compound 2.53 µM): 0.84
relative viability ([3]; first compound 8 µM): 0.942
relative viability ([4]; first compound 0.005 µM): 0.399
relative viability ([4]; first compound 0.01581 µM): 0.31
relative viability ([4]; first compound 0.05 µM): 0.242
relative viability ([4]; first compound 0.1581 µM): 0.218
relative viability ([4]; first compound 0.5 µM): 0.167

NCI-H2087
relative viability ([1]; first compound 0.05 µM): 1.31
relative viability ([1]; first compound 0.1581 µM): 1.39
relative viability ([1]; first compound 0.5 µM): 1.62
relative viability ([1]; first compound 1.581 µM): 1.3
relative viability ([1]; first compound 5 µM): 1.49
relative viability ([2]; first compound 0.08 µM): 1.22
relative viability ([2]; first compound 0.253 µM): 1.12
relative viability ([2]; first compound 0.8 µM): 1.09
relative viability ([2]; first compound 2.53 µM): 1.08
relative viability ([2]; first compound 8 µM): 1.04
relative viability ([3]; first compound 0.08 µM): 1.14
relative viability ([3]; first compound 0.253 µM): 0.962
relative viability ([3]; first compound 0.8 µM): 0.871
relative viability ([3]; first compound 2.53 µM): 0.896
relative viability ([3]; first compound 8 µM): 0.919
relative viability ([4]; first compound 0.005 µM): 0.952
relative viability ([4]; first compound 0.01581 µM): 1.01
relative viability ([4]; first compound 0.05 µM): 1.17
relative viability ([4]; first compound 0.1581 µM): 0.737
relative viability ([4]; first compound 0.5 µM): 0.494
